ChEMBL document CHEMBL1649082, “Trends in kinase selectivity: insights for target class-focused library screening” (J Med Chem, 2011)

Experiments:
Parameters in all cases: scale not given: the % may be the effect or the level left
[1] = target: T1, Inhibitor of nuclear factor kappa-B kinase subunit alpha (Homo sapiens) (UniProt O15111); assay: Inhibition of IKKalpha assessed as activity at 1 uM relative to control
T1 sequence (whole entry): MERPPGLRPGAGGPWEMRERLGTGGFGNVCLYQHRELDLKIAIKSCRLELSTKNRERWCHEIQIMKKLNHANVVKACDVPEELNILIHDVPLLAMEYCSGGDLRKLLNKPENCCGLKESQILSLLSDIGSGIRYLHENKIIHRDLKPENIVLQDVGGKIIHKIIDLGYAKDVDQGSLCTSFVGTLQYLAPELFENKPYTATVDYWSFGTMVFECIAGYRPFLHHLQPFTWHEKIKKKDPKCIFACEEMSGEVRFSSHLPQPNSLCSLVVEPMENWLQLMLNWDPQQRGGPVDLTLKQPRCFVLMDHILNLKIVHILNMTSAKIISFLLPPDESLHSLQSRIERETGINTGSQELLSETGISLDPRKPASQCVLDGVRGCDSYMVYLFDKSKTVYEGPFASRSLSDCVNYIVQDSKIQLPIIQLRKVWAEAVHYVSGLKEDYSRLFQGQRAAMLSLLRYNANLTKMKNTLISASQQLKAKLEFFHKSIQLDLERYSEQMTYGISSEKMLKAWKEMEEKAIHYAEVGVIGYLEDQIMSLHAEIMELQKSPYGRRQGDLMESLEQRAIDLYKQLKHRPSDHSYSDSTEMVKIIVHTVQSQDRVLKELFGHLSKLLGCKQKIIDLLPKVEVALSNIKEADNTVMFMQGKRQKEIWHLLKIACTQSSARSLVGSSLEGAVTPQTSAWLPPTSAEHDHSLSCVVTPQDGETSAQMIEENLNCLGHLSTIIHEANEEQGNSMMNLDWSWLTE

[2] = target: Cyclin-dependent kinase 7 (Homo sapiens) (UniProt P50613); assay: Inhibition of CDK7 assessed as activity at 1 uM relative to control
Sequence of Cyclin-dependent kinase 7 (Homo sapiens) (P50613 whole entry, canonical isoform): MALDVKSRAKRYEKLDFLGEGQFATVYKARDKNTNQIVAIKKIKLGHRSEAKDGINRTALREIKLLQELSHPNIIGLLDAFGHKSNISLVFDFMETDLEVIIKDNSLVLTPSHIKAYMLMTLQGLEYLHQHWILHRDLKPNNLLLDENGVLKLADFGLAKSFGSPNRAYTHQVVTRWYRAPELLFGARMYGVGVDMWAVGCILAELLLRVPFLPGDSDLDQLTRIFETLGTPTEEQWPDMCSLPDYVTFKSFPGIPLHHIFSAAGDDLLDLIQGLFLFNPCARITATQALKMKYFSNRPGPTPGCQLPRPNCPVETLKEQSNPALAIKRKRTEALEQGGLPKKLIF

[3] = Inhibition of CDC2L2 isoform 1 assessed as activity at 1 uM relative to control
[4] = Inhibition of CDC2L1 isoform 4 assessed as activity at 1 uM relative to control

| Compound | Activity [1] | Activity [2] | Activity [3] | Activity [4] |
| --- | --- | --- | --- | --- |
| Cc1cccc(-c2cc3nc(NCCN)c4ncc(C)n4c3s2)c1 | 15% | 58% | 68% | 42% |
| Cc1cnc2c(NCCN)nc3cc(-c4cccc(CO)c4)sc3n12 | 4.6% | 0.5% | 6.3% | 2.1% |
